Data on 3 compounds can be found in ChEMBL document CHEMBL4813957, “Antitubercular properties of thiazolidin-4-ones - A review” (Eur J Med Chem, 2021).

For assay [1], the system named is Mycobacterium tuberculosis. Nature of the assay: Antimycobacterial activity against Mycobacterium bovis BCG. In kind it is functional, organism-based. The note with it: variant bovis BCG.
Assay [2] concerns Mycobacterium tuberculosis. The assay is described as follows: Antimycobacterial activity against Mycobacterium africanum measured up to 2 weeks. The note with it: variant africanum, 336 h, time weeks <=2. It counts as functional.
For assay [3], the system named is Mycobacterium tuberculosis. Nature of the assay: Antimycobacterial activity Mycobacterium bovis BCG measured up to 2 weeks. In kind it is functional. Conditions: variant bovis BCG, 336 h, time weeks <=2.
The subject of assay [4] is Mycobacterium tuberculosis. The assay is described as follows: Antimycobacterial activity against Mycobacterium bovis BCG assessed as inhibition of bacteria at 30 ug/ml by nitrate reductase assay. It counts as functional. Conditions: variant bovis BCG.

For orientation: IC50 means the point on the concentration scale where inhibition reaches its midpoint. Read a high IC50 as weaker potency. The term MIC denotes the least concentration at which growth counts as inhibited. As usually defined, the inhibition is the drop in the measured response relative to a control, in per cent.

≈ marks a conversion by molar mass, not a printed value.

For the compound `O=C(O)CN1C(=O)/C(=C/c2ccc(Cl)cc2)SC1=S`, the IC50 in assay [1] came out at 7.4 µg/mL (≈ 23.6 µM). On to `O=C(O)CCCCCC1NC(=O)CS1` (centres undefined), for which the MIC in assay [2] was found to be 0.2 µM (≈ 0.0435 µg/mL); in assay [3] it was 1.3 µM (≈ 0.282 µg/mL). As for `Cc1nc(-c2cnccn2)sc1C(=O)NN1C(=O)CSC1c1ccccc1` (centres undefined), the inhibition at 30 µg/mL in assay [4] stood at 62%.
